Consider 20 compounds from US20180057507A1, “INHIBITORS OF DUAL LEUCINE ZIPPER (DLK) KINASE FOR THE TREATMENT OF DISEASE” (Board of Regents, The University of Texas System, priority 2016, published 2018).

In the test the target is T1, human DLK (Homo sapiens, UniProt Q12852).
T1 sequence (Q12852 1-859): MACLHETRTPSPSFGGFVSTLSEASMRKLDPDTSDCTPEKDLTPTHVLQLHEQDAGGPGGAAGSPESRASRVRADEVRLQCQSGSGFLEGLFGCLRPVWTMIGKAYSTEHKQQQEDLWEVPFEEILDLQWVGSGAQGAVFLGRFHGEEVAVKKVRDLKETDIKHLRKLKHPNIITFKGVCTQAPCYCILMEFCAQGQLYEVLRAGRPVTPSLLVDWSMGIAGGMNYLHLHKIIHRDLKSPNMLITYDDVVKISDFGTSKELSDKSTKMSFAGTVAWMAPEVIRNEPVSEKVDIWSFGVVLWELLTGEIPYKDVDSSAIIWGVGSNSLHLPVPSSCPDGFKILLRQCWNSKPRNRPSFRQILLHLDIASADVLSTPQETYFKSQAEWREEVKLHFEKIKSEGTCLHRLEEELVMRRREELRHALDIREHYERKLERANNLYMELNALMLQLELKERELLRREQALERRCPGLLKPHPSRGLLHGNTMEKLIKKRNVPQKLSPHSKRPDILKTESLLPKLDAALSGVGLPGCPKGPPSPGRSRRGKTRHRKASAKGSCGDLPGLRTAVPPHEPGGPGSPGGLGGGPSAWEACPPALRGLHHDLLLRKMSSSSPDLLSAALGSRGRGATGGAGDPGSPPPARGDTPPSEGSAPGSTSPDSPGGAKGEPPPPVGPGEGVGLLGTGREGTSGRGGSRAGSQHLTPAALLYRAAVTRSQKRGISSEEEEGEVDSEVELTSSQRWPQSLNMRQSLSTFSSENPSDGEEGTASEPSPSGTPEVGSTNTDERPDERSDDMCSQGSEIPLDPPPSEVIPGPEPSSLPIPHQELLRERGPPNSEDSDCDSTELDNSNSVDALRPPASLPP
The experiment in a line: DLK Kd Determinations (KINOMEscan KdELECT, DiscoveRx). Further details: full length of human DLK (amino acids 1-859); host or cells: transiently transfected HEK293 cells; unpurified extract. The following applies: fusion protein of full length human DLK (amino acids 1-859) and NFkB DNA binding domain; qPCR readout; duplicate. On the procedure: The DLK dissociation constants (Kd) have been determined in the KINOMEscan KdELECT Service at DiscoveRx.
A fusion protein of full length of human DLK (amino acids 1-859) and the DNA binding domain of NFkB was expressed in transiently transfected HEK293 cells. From these HEK 293 cells, extracts were prepared in M-PER extraction buffer (Pierce) in the presence of Protease Inhibitor Cocktail Complete (Roche) and Phosphatase Inhibitor Cocktail Set II (Merck) per manufacturers' instructions. The DLK fusion protein was labeled with a chimeric double-stranded DNA tag containing the NFkB binding site (5′-GGGAATTCCC-3′) fused to an amplicon for qPCR readout, which was added directly to the expression extract (the final concentration of DNA-tag in the binding reaction is 0.1 nM).
Streptavidin-coated magnetic beads (Dynal M280) were treated with a biotinylated small molecule ligand for 30 minutes at room temperature to generate affinity resins the binding assays. The liganded beads were blocked with excess biotin and washed with blocking buffer (SeaBlock (Pierce), 1% BSA, 0.05% Tween 20, 1 mM DTT) to remove unbound ligand and to reduce nonspecific binding.
Extracts were used directly in binding assays without any enzyme purification steps at a ≧10,000-fold overall stock dilution (final DNA-tagged enzyme concentration <0.1 nM). Extracts were loaded with DNA-tag and diluted into the binding reaction in a two step process. First extracts were diluted 1:100 in 1× binding buffer (PBS/0.05% Tween 20/10 mM DTT/0.1% BSA/2 μg/ml sonicated salmon sperm DNA) containing 10 nM DNA-tag. This dilution was allowed to equilibrate at room temperature for 15 minutes and then subsequently diluted 1:100 in 1× binding buffer. Test compounds were prepared as 111× stocks in 100% DMSO. Kds were determined using an 11-point 3-fold compound dilution series with three DMSO control points. All compounds for Kd measurements are distributed by acoustic transfer (non-contact dispensing) in 100% DMSO. The compounds were then diluted directly into the assays such that the final concentration of DMSO was 0.9%. All reactions performed in polypropylene 384-well plates. Each was a final volume of 0.02 mL. Assays were incubated with shaking for 1 hour at room temperature. Then the beads were pelleted and washed with wash buffer (1×PBS, 0.05% Tween 20) to remove displaced kinase and test compound. The washed based were re-suspended in elution buffer (1×PBS, 0.05% Tween 20, 0.5 μM non-biotinylated affinity ligand) and incubated at room temperature with shaking for 30 minutes. The kinase concentration in the eluates was measured by qPCR. qPCR reactions were assembled by adding 2.5 μL of kinase eluate to 7.5 μL of qPCR master mix containing 0.15 μM amplicon primers and 0.15 μM amplicon probe. The qPCR protocol consisted of a 10 minute hot start at 95° C., followed by 35 cycles of 95° C. for 15 seconds, 60° C. for 1 minute.
Test compounds were prepared as 111× stocks in 100% DMSO. Kds were determined using an 11-point 3-fold compound dilution series with three DMSO control points. All compounds for Kd measurements are distributed by acoustic transfer (non-contact dispensing) in 100% DMSO. The compounds were then diluted directly into the assays such that the final concentration of DMSO was 0.9%. The Kds were determined using a compound top concentration of 30,000 nM. Kd measurements were performed in duplicate.
Binding constants (Kds) were calculated with a standard dose-response curve using the Hill equation: […]
The Hill Slope was set to −1. Curves were fitted using a non-linear least square fit with the Levenberg-Marquardt algorithm (Levenberg, K., A method for the solution of certain non-linear problems in least squares, Q. Appl. Math. 2, 164-168 (1944)). See also Fabian, M. A. et al. A small molecule-kinase interaction map for clinical kinase inhibitors. Nat. Biotechnol. […]
Background: Real-time PCR tracks product formation cycle by cycle.
Consider `CC(C)c1nc(-c2cnc(N)c(C(F)(F)F)c2)cn1[C@H]1[C@@H]2CC(N3CCOCC3)C[C@@H]21` (mixture of isomers) [Example 3, 5-(2-isopropyl-1-((1R,5S,6r)-3-morpholinobicyclo[3.1.0]hexan-6-yl)-1H-imidazol-4-yl)-3-(trifluoromethyl)pyridin-2-amine], for which the Kd is 0.051 µM.

With `Nc1ncc(-c2cn(CC3CC3)c([C@H]3[C@@H]4CN(C5COC5)C[C@@H]43)n2)cc1C(F)(F)F` [Example 1, 5-(1-(cyclopropylmethyl)-2-((1R,5S,6r)-3-(oxetan-3-yl)-3-azabicyclo[3.1.0]hexan-6-yl)-1H-imidazol-4-yl)-3-(trifluoromethyl)pyridin-2-amine], the Kd is 0.14 µM.

Consider `CC1OCCn2cc(-c3cnc(N)c(C(F)(F)F)c3)nc21` (centres unmarked) [Example 5, 5-(8-methyl-6,8-dihydro-5H-imidazo[2,1-c][1,4]oxazin-2-yl)-3-(trifluoromethyl)pyridin-2-amine], for which the Kd came to 3.3 µM.

In the case of `CC(C)n1cc(-c2cnc(N)c(C(F)(F)F)c2)nc1C1CC1` [Example 8, 5-[2-cyclopropyl-1-(propan-2-yl)-1H-imidazol-4-yl]-3-(trifluoromethyl)pyridin-2-amine], the affinity, expressed as Kd, was 0.13 µM.

The compound `Nc1ncc(-c2cn(C3CC3)c(C3CC3)n2)cc1C(F)(F)F` [Example 9, 5-(1,2-dicyclopropyl-1H-imidazol-4-yl)-3-(trifluoromethyl)pyridin-2-amine] gave an equilibrium dissociation constant (Kd) of 0.24 µM.

As for `Nc1ncc(-c2cn3c(n2)COCC3)cc1C(F)(F)F` [Example 10, 5-(5,6-dihydro-8H-imidazo[2,1-c][1,4]oxazin-2-yl)-3-(trifluoromethyl)pyridin-2-amine], the Kd was 0.84 µM.

Regarding `CC(C)c1nc(-c2cnc(N)c(C(F)(F)F)c2)cn1[C@H]1[C@@H]2CNC[C@@H]21` [Example 11, 5-(1-(3-azabicyclo[3.1.0]hexan-6-yl)-2-isopropyl-1H-imidazol-4-yl)-3-(trifluoromethyl)pyridin-2-amine], the equilibrium dissociation constant (Kd) is 0.12 µM.

`CC(C)c1nc(-c2cnc(N)c(C(F)(F)F)c2)cn1[C@H]1[C@@H]2CN(C3COC3)C[C@@H]21` [Example 12, 5-(2-isopropyl-1-((1R,5S,6s)-3-(oxetan-3-yl)-3-azabicyclo[3.1.0]hexan-6-yl)-1H-imidazol-4-yl)-3-(trifluoromethyl)pyridin-2-amine] gave a Kd of 0.047 µM.

Consider `CC(C)c1nc(-c2cnc(N)c(C(F)(F)F)c2)cn1[C@H]1[C@@H]2CN(C3CCOCC3)C[C@@H]21` [Example 13, 5-(2-isopropyl-1-((1R,5S,6s)-3-(tetrahydro-2H-pyran-4-yl)-3-azabicyclo[3.1.0]hexan-6-yl)-1H-imidazol-4-yl)-3-(trifluoromethyl)pyridin-2-amine], for which binding was put at a Kd of 0.078 µM.

In the case of `CC(=O)N1C[C@@H]2[C@H](C1)[C@H]2n1cc(-c2cnc(N)c(C(F)(F)F)c2)nc1C(C)C` [Example 14, 1-(6-(4-(6-amino-5-(trifluoromethyl)pyridin-3-yl)-2-isopropyl-1H-imidazol-1-yl)-3-azabicyclo[3.1.0]hexan-3-yl)ethan-1-one], the Kd came out at 0.17 µM.

In turn, `COCCN1C[C@@H]2[C@H](C1)[C@H]2n1cc(-c2cnc(N)c(C(F)(F)F)c2)nc1C(C)C` [Example 15, 5-(2-isopropyl-1-((1R,5S,6s)-3-(2-methoxyethyl)-3-azabicyclo[3.1.0]hexan-6-yl)-1H-imidazol-4-yl)-3-(trifluoromethyl)pyridin-2-amine] yielded a Kd of 0.21 µM.

On to `CC(C)c1nc(-c2cnc(N)c(C(F)(F)F)c2)cn1[C@H]1[C@@H]2CN(CCF)C[C@@H]21` [Example 16, 5-(1-((1R,5S,6s)-3-(2-fluoroethyl)-3-azabicyclo[3.1.0]hexan-6-yl)-2-isopropyl-1H-imidazol-4-yl)-3-(trifluoromethyl)pyridin-2-amine], for which the Kd was found to be 0.068 µM.

As for `CC(C)c1nc(-c2cnc(N)c(C(F)(F)F)c2)cn1[C@H]1[C@@H]2CN(CC(F)F)C[C@@H]21` [Example 17, 5-(1-((1R,5S,6s)-3-(2,2-difluoroethyl)-3-azabicyclo[3.1.0]hexan-6-yl)-2-isopropyl-1H-imidazol-4-yl)-3-(trifluoromethyl)pyridin-2-amine], the Kd came out at 0.17 µM.

`CC(C)c1nc(-c2cnc(N)c(C(F)(F)F)c2)cn1[C@H]1[C@@H]2CN(CC(F)(F)F)C[C@@H]21` [Example 18, 5-(2-isopropyl-1-((1R,5S,6s)-3-(2,2,2-trifluoroethyl)-3-azabicyclo[3.1.0]hexan-6-yl)-1H-imidazol-4-yl)-3-(trifluoromethyl)pyridin-2-amine] gave a Kd of 0.72 µM.

`CC(C)c1nc(-c2cnc(N)c(C(F)(F)F)c2)cn1C` [Example 21, 5-(2-isopropyl-1-methyl-1H-imidazol-4-yl)-3-(trifluoromethyl)pyridin-2-amine] yielded a Kd of 0.64 µM.

In turn, `CC(C)c1nc(-c2cnc(N)c(C(F)(F)F)c2)cn1C1CC2(COC2)C1` [Example 23, 5-(2-isopropyl-1-(2-oxaspiro[3.3]heptan-6-yl)-1H-imidazol-4-yl)-3-(trifluoromethyl)pyridin-2-amine] registered a Kd of 0.22 µM.

Turning to `CC(C)c1nc(-c2cnc(N)c(C(F)(F)F)c2)cn1[C@H]1C[C@@H](F)C1` [Example 24, 5-(1-((1s,3s)-3-fluorocyclobutyl)-2-isopropyl-1H-imidazol-4-yl)-3-(trifluoromethyl)pyridin-2-amine], binding was put at a Kd of 0.24 µM.

On to `CC(C)c1nc(-c2cnc(N)c(C(F)(F)F)c2)cn1[C@H]1C[C@H](F)C1` [Example 25, 5-(1-((1r,3r)-3-fluorocyclobutyl)-2-isopropyl-1H-imidazol-4-yl)-3-(trifluoromethyl)pyridin-2-amine], for which binding was characterised by a dissociation constant (Kd) of 0.2 µM.

For `CC(C)c1nc(-c2cnc(N)c(C(F)(F)F)c2)cn1C1CC(F)(F)C1` [Example 26, 5-(1-(3,3-difluorocyclobutyl)-2-isopropyl-1H-imidazol-4-yl)-3-(trifluoromethyl)pyridin-2-amine], the dissociation constant Kd was determined as 0.4 µM.

Regarding `CC(C)c1nc(-c2cnc(N)c(C(F)(F)F)c2)cn1C1CN(C2COC2)C1` [Example 27, 5-(2-isopropyl-1-(1-(oxetan-3-yl)azetidin-3-yl)-1H-imidazol-4-yl)-3-(trifluoromethyl)pyridin-2-amine], the Kd is 0.27 µM.

Broadly, the Kd is a measure of binding affinity in units of concentration. A low value points to tighter binding.
